Source: ChEMBL document CHEMBL2390850, “New azole antagonists with high affinity for the P2Y(1) receptor” (Bioorg Med Chem Lett, 2013)

Columns and labels:
P2Y purinoceptor 1 = P2Y purinoceptor 1 (Homo sapiens, UniProt P47900); assay: Displacement of [beta-33P]-2MeS-ADP from human P2Y1 receptor expressed in HEK293 cells after 1 hr by scintillation counting analysis; type: cell-based
[1] = Lipophilicity, log P of the compound by HPLC analysis; type: physicochemical
[2] = Antiplatelet activity in human platelet-rich plasma assessed as inhibition of ADP-induced platelet aggregation; type: functional, cell-free
[3] = Plasma protein binding in human; type: ADME, cell-free; details: read-out: PPB (converted)
[4] = Solubility of the compound at pH 6.5; type: physicochemical; details: buffer
[5] = Antiplatelet activity in human platelet-rich plasma assessed as inhibition of ADP-induced platelet aggregation relative to untreated control; type: functional

P2Y purinoceptor 1, sequence (P47900 whole entry): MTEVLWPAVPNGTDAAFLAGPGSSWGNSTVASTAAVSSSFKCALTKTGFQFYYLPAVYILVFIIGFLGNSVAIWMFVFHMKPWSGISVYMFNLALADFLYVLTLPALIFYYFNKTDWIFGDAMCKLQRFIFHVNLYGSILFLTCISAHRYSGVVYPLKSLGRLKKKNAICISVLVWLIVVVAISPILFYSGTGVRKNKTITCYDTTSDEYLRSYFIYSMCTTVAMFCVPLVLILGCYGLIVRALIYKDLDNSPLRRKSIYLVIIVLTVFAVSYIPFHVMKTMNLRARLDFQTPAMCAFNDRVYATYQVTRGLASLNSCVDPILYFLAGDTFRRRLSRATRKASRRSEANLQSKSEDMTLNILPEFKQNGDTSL

Row | Ki (P2Y purinoceptor 1) [nM] | Compound | other results
1 | 25 | CC(C)(C)c1ccccc1Oc1ncccc1Nc1nc(-c2ccccc2)ns1 | 
2 | 19 | CC(C)(C)c1ccccc1Oc1ncccc1Nc1cc(-c2ccccc2)on1 | 
3 | 11 | CC(C)(C)c1ccccc1Oc1ncccc1Nc1nnc(-c2ccccc2)s1 | logP [1]: 5.01; IC50 [2]: 13000 nM
4 | 10 | CC(C)(C)c1ccccc1Oc1ncccc1Nc1nnc(-c2ccc(OC(F)(F)F)cc2)s1 | 
5 | 21 | CC(C)(C)c1ccccc1Oc1ncccc1Nc1nnc(-c2ccccn2)s1 | 
6 | 15 | CC(C)(C)c1ccccc1Oc1ncccc1Nc1ncc(-c2ccccc2)s1 | logP [1]: 5.98
7 | 59 | CC(C)(C)c1ccccc1Oc1ncccc1Nc1ncc(-c2ccccc2)o1 | 
8 | 45 | Cn1nc(Nc2cccnc2Oc2ccccc2C(C)(C)C)cc1-c1ccccc1 | 
9 | 2730 | CC(C)(C)c1ccccc1Oc1ncccc1Nc1nncs1 | 
10 | 275 | CC(C)(C)c1ccccc1Oc1ncccc1Nc1nnc(-c2ccncc2)s1 | IC50 [2]: 29000 nM
11 |  | CC(C)(C)c1ccccc1Oc1ncccc1NC(=O)Nc1ccc(OC(F)(F)F)cc1 | fraction unbound [3]: 0.007
12 | 670 | CN(C)Cc1cccc(-c2nnc(Nc3cccnc3Oc3ccccc3C(C)(C)C)s2)c1 | 
13 | 7 | CC(C)(C)c1ccccc1Oc1ncccc1Nc1nnc(-c2ccc(C(F)(F)F)cc2)s1 | logP [1]: 6; solubility [4]: < 1 µg/mL; IC50 [2]: 7500 nM
14 | 90 | CCOC(=O)c1nnc(Nc2cccnc2Oc2ccccc2C(C)(C)C)s1 | 
15 | > 36000 | Cn1nc(-c2ccccc2)cc1Nc1cccnc1Oc1ccccc1C(C)(C)C | 
16 | 70 | CC(C)(C)c1ccccc1Oc1ncccc1Nc1nnc(-c2ccccc2)o1 | 
17 | 1500 | CC(C)(C)c1ccccc1Oc1ncccc1Nc1nsc(-c2ccccc2)n1 | 
18 | 410 | CC(C)(C)c1ccccc1Oc1ncccc1Nc1noc(-c2ccccc2)n1 | 
19 | 27 | CN(C)c1ccc(-c2nnc(Nc3cccnc3Oc3ccccc3C(C)(C)C)s2)cc1 | 
20 | 18 | CC(C)(C)c1ccccc1Oc1ncccc1Nc1nnc(-c2ccc3ccccc3c2)s1 | 
21 | 23 | CC(C)(C)c1ccccc1Oc1ncccc1Nc1cc(-c2ccccc2)no1 | 
22 | 2500 | CC(C)(C)c1ccccc1Oc1ncccc1N=C1NCC(c2ccccc2)O1 (stereo not drawn) | 
23 | 340 | CC(C)(C)c1ccccc1Oc1ncccc1Nc1nnc(-c2cccnc2)s1 | 
24 | 250 | CN(C)Cc1ccc(-c2nnc(Nc3cccnc3Oc3ccccc3C(C)(C)C)s2)cc1 | 
25 | 41 | CC(C)(C)c1ccccc1Oc1ncccc1NC(=O)Nc1ccccc1 | inhibition (INH) [5]: 95%
26 | 15 | CC(C)(C)c1ccccc1Oc1ncccc1NC(=O)Nc1ccc(C(F)(F)F)cc1 | IC50 [2]: 12600 nM
27 | 870 | CC(C)(C)c1ccccc1Oc1ncccc1Nc1cc(-c2ccccc2)n[nH]1 | 
28 | 55 | CN(C)c1cccc(-c2nnc(Nc3cccnc3Oc3ccccc3C(C)(C)C)s2)c1 | 
29 | 2900 | CC(C)(C)c1ccccc1Oc1ncccc1Nc1nnc(C(=O)O)s1 | 
